pKi: −log10 of the molar value. Like-named read-outs stand apart in the source and are kept apart here.

A word on the pKi: it is the negative decadic logarithm of the Ki, by convention in mol/L.

Data set [1] deals with α7nAChR. Also on record: method as in Gao et al., 2013; Wang et al., 2018. As to conditions: affinity for α7nAChR; ref Gao et al., 2013; Wang et al., 2018; cited from earlier work.
For data set [2], the target named is α7nAChR (Mus musculus, UniProt P49582). As for the experimental part: ApoE^–/– mice (n = 4; weight, 25–30 g) and normal mice (n = 4; weight, 25–30 g) were randomly selected; the chosen ApoE^–/– mice were fed with 21% fat and 0.15% cholesterol supplement for 11–12 weeks.
The high-performance liquid chromatography (HPLC)-purified ^18F-ASEM [[…], dissolved in 0.2 ml normal saline, containing 5% dimethyl sulfoxide (DMSO)] was injected into tail vein of ApoE^–/– mice and normal mice. ApoE^–/– mice, positioned prone position, were anesthetized (1–2% isoflurane) through inhalation. After anesthesia, mice were injected with 5.56 MBq (150 μCi) ^18F-ASEM through the tail vein and underwent a dynamic imaging for 1 h. Dynamic PET scanning were carried out at 5, 10, 15, 30, and 60 min after injection, and biological distributions were analyzed as previously described by our group ([Wang et al., 2021]). Briefly, the regions of interest (ROIs) were cycled from 3D ordered subset expectation maximization (OSEM 3D) reconstruction images, then % ID/g value was calculated by Inveon Research Workplace 4.0 (IRW4.0).

Data set [3] concerns α7nAChR. Details: method as in Gao et al., 2013; Wang et al., 2018. As to conditions: specificity for α7nAChR; ref Gao et al., 2013; Wang et al., 2018; cited from earlier work.
Data set [4] addresses T1, α7nAChR (Oryctolagus cuniculus, UniProt A0A0H4CUK0).
T1 construct: from tissue; host or cells: living New Zealand rabbits (abdominal aorta with atherosclerotic plaques)
As to the kind of experiment: PET/CT imaging of abdominal aorta atherosclerotic plaques in New Zealand rabbits. Type of data set: in vivo. As to conditions: model rabbits, PET/CT 30 min after injection. As for the experimental part: New Zealand rabbits (n = 4; weight, 2.5–3.0 kg) were fed with high-fat diet for 14 weeks. The balloon-sprained and injured experiment was carried out at the third week after 2 weeks of high-fat diet. First, rabbits were anesthetized by 10% chloral hydrate, a 3-cm incision was conducted in the right inguinal area to expose the right femoral artery; then, the right femoral artery was punctured by Seldinger technique. Second, an angiographic catheter with double lumen balloon was sent to the aortic arch under fluoroscopy. Third, the balloon was bulged and pulled down to the bifurcation of the distal iliac artery of the abdominal aorta for three times. Lastly, the catheter and sheath were removed, and the operational incisions were sutured (Figure 2).
First, rabbits (n = 4) were anesthetized by 10% chloral hydrate (2 ml/kg). Then, ^18F-ASEM solution (74 MBq in 0.2 ml normal saline) was injected into the right ear vein of rabbits. After that, the imaging procedure was conducted 30 min after injection of ^18F-ASEM and lasted for 10 min performed by PET/CT (Discovery IQ 2.0 GE). The injection of ^18F-FDG (74 MBq in 0.2 ml normal saline) and PET/CT imaging were performed in the same strategy on the next day. The reconstruction mode was super iterative. The % ID/g value was worked out in the same protocol as mentioned above through IRW 4.0 software.

Data set [5] is described as follows: biological distribution of the tracer in normal mice (dynamic PET). Type of data set: in vivo.

Sequence of α7nAChR (Mus musculus, UniProt P49582) (P49582 23-502): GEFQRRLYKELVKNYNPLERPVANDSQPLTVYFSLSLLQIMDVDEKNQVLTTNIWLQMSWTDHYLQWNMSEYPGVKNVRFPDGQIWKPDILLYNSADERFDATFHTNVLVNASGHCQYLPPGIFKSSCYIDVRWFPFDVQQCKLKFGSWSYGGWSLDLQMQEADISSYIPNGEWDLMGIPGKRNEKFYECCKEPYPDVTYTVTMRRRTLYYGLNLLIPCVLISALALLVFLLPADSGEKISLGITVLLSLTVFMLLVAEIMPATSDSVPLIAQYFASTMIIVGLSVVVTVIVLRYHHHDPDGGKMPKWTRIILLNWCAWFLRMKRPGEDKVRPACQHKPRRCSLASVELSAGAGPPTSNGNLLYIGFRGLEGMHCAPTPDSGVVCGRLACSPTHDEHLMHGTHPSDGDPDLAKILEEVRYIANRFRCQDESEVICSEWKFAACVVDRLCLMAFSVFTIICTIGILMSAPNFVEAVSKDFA
T1 sequence (A0A0H4CUK0 25-504): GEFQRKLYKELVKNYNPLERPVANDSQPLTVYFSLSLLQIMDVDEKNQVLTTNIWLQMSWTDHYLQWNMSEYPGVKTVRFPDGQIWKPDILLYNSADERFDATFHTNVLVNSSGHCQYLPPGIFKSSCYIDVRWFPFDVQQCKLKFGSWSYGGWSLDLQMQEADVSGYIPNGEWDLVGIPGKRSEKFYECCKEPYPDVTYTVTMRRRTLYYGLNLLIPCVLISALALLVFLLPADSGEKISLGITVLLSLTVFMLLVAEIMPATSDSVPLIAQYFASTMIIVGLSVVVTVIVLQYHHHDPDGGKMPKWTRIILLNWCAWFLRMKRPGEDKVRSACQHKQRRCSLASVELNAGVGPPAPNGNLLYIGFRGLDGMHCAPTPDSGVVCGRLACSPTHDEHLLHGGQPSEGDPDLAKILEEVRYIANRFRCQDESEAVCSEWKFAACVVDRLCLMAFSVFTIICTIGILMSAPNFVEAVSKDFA

With `O=S1(=O)c2cc(N3CCN4CCC3CC4)ccc2-c2cccc(F)c21` [^18F-ASEM], the pKi at α7nAChR [1] was 9.40.
Regarding `O=S1(=O)c2cc(N3CCN4CCC3CC4)ccc2-c2cccc([18F])c21` [^18F-ASEM], the “uptake in the arteries” value on α7nAChR [2] (ApoE–/– mice) was found to be 4.05 ± 0.64 ID%/g; on α7nAChR [2] (ApoE–/– mice, 5 min after injection), 4.39 ± 1.08 ID%/g; on α7nAChR [2] (ApoE–/– mice, 15 min after injection), 4.20 ± 0.46 ID%/g; on α7nAChR [2] (ApoE–/– mice, 60 min after injection) it was 3.80 ± 0.43 ID%/g; on α7nAChR [2] (control group mice) it was 2.40 ± 0.41 ID%/g; on α7nAChR [2] (control group mice, 5 min after injection), 2.35 ± 0.58 ID%/g. The “uptake in the arteries” value at α7nAChR [2] (control group mice, 15 min after injection) is listed as 2.46 ± 0.34 ID%/g; at α7nAChR [2] (control group mice, 60 min after injection), 2.70 ± 0.28 ID%/g. For the same molecule, at α7nAChR [2] (ApoE–/– mouse), the “uptake in the carotid artery (PET imaging)” value is given as “more ^18F-ASEM gathering”. Also, the “PET signal in the normal group” value on α7nAChR [2] (normal mice) is on record as “no signal”. In the data set with α7nAChR [3], the BPND is listed as 3.9–6.6. For the same molecule, the “uptake in plaques at abdominal arterial scratches zones” value at α7nAChR [4] is “remarkable uptake”. For the same molecule, the “time of peak uptake in the kidney” value in data set [5] (after injection) is listed as 5 min. In data set [5] (after injection), the “time of peak uptake in the liver” value is 15 min. The “uptake in the muscle” value in data set [5] (compared with other organs) is recorded as “lowest uptake”.
Take ^18F-FDG: the “uptake in the carotid artery (PET imaging)” value on α7nAChR [2] (mouse, in vivo) was “slight”.
